The NIST ThermoML archive (doi:10.1021/je700741x)
± gives the expanded uncertainty stated by the source.

Settings: 298.15 K; 101.33 kPa; Liquid

Row | Structure (SMILES) | mass density [kg/m3]
1 | CC(C)O [propan-2-ol] | 781.4 ± 1.1
2 | OCC(F)(F)F [2,2,2-trifluoroethanol] | 1382.4 ± 1.6
3 | CCO [ethanol] | 785.2 ± 1
4 | C1CCCCC1 [cyclohexane] | 774 ± 1
